# Results: ChEMBL document CHEMBL1126388, “Synthesis of metabolically stable arylpiperazine 5-HT1A receptor agonists” (Bioorg Med Chem Lett, 1992)
# What was measured:
# Mus musculus [1] = assay: Effective dose required for hypothermia activity after subcutaneous administration at 1.9 degree F temp in mouse; assay type: functional; conditions: sc
# [2] = molecular target: T1, 5-hydroxytryptamine receptor 1A (Mus musculus, UniProt Q64264); assay: Compound was tested for binding affinity to 5-hydroxytryptamine 1A receptor using [3H]8-OH-DPAT as a radioligand
# T1 sequence (Q64264 whole entry): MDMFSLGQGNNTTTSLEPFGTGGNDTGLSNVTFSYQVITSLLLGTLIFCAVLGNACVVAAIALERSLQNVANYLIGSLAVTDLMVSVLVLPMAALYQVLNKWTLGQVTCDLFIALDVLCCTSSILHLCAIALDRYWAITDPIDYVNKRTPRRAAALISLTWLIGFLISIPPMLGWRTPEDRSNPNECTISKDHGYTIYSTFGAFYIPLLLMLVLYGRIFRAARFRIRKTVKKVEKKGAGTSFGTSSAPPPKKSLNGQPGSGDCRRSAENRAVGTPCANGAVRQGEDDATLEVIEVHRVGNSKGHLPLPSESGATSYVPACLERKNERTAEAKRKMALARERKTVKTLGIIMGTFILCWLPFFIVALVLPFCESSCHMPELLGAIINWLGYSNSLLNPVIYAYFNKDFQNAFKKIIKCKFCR
# Mus musculus [3] = assay: Effective dose required for hypothermia activity after 20 min of oral administration at 2.9 degree F temp in mouse; assay type: functional
# Mus musculus [4] = assay: Effective dose required for hypothermia activity after subcutaneous administration at 3.8 degree F temp in mouse; assay type: functional; conditions: sc
# Mus musculus [5] = assay: Effective dose required for hypothermia activity after >120 min of oral administration at 4.0 degree F temp in mouse; assay type: functional; conditions: 2 h
# Mus musculus [6] = assay: Effective dose required for hypothermia activity after subcutaneous administration at 6.4 degree F temp in mouse; assay type: functional; conditions: sc
SMILES,ED50 (Mus musculus [1]),Ki [2],ED50 (Mus musculus [3]),ED50 (Mus musculus [4]),ED50 (Mus musculus [5]),ED50 (Mus musculus [6])
O=C1c2ccccc2S(=O)(=O)N1C[C@@H]1C[C@@H]1CN1CCN(c2ncccn2)CC1,> 0.055 µmol/kg,43.7 nM,,,,
O=C1c2ccccc2S(=O)(=O)N1CCCCN1CCN(c2ncccn2)CC1 [IPSAPIRONE],,12.1 nM,0.23 µmol/kg,0.00527 µmol/kg,,
O=C1c2ccccc2S(=O)(=O)N1C[C@H]1C[C@@H]1CN1CCN(c2ncccn2)CC1,,8.7 nM,,,0.19 µmol/kg,0.0032 µmol/kg
